Where two headings read alike, the source gives them in different places.

The source of these data is patent publication US10844067B2, “Heterocyclic compounds as RET kinase inhibitors” (Cancer Research Technology Limited, priority 2016, dated 2020).

For one experiment, the target named is KDR (Homo sapiens (Human), UniProt P35968). The experiment is described as follows: KDR enzyme assay (CisBio HTRF kinEASE). It counts as biochemical. To be noted: ATP at Km.
In a further experiment the target is RET (Homo sapiens (Human), UniProt P07949). Put plainly: RET enzyme assay (CisBio HTRF kinEASE). The experiment is classed as biochemical. To be noted: for IC50: ATP at Km.
In a further experiment the target is RET^V804M (Homo sapiens (Human), UniProt P07949, V804M). The experiment is described as follows: RET^V804M enzyme assay. The experiment is classed as biochemical.
Experiment [1] addresses BaF3 cell lines expressing KIF5B-RET (Homo sapiens, UniProt P07949). It counts as cell-based. Conditions: read-out: RET Cell IC50.
Description: (§1) The system originally developed by Daley and Baltimore^16 was used, whereby IL3-dependent BaF3 cells are modified to express an activated recombinant kinase. Following removal of IL3, the modified cells are dependent on the activity of the recombinant kinase for survival and proliferation. […] Following incubation of the cells for 48 hours at 37° C. in a humidified 5% CO2 atmosphere, viability was determined by addition of 10 μL CellTiter-Glo reagent (Promega) and measurement of luminescence.
For experiment [2], the system named is BaF3 cell lines expressing KDR. Put plainly: BaF3 cell assay, KDR (CellTiter-Glo viability). It counts as cell-based. Conditions: Mus musculus, BaF3 cells expressing KDR, 48 hours.
Description: as §1
Experiment [3] relates to Non-modified BaF3 cells (WT). The experiment is described as follows: BaF3 cell assay, non-modified (WT) cells with IL3. To be noted: Mus musculus, BaF3, 48 h, read-out: BaF3 IC50.
Description: as §1
A further experiment relates to RET^V804M Cell. Put plainly: BaF3 cell assay, RET^V804M (CellTiter-Glo viability). The experiment is classed as cell-based. Conditions: Mus musculus, RET^V804M cells, 48 hours.

Chain of RET (P07949 29-1114): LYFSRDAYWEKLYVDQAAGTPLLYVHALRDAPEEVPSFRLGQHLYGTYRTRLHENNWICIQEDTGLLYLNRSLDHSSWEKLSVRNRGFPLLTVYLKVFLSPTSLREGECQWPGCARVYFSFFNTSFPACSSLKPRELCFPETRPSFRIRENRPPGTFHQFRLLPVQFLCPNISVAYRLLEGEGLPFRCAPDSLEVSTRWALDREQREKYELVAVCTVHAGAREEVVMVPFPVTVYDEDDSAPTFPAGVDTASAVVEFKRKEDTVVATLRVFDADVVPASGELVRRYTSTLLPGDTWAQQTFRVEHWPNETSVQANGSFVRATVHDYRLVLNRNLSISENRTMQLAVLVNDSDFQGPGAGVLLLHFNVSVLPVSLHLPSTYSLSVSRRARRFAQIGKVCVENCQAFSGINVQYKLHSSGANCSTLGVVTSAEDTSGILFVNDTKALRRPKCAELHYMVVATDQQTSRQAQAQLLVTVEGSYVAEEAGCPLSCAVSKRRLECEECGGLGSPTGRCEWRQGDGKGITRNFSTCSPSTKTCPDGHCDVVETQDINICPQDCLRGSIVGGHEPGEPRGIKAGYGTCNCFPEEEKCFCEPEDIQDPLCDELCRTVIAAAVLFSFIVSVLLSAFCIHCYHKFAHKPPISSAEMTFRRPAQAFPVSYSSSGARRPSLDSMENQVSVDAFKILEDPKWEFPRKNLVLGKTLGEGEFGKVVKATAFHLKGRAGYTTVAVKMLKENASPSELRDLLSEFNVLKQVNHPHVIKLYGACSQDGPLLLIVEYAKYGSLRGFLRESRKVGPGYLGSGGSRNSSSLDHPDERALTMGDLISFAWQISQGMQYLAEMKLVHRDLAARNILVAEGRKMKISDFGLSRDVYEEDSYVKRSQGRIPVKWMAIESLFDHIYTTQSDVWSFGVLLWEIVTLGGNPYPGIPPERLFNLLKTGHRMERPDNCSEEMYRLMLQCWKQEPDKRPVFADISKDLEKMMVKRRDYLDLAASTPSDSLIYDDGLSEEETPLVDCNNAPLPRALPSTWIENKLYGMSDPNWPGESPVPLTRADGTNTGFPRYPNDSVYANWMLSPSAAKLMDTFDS
Chain of BaF3 cell lines expressing KIF5B-RET (P07949 29-1114 limits assumed, change not shown): as the sequence (P07949 29-1114) above
Chain of KDR (P35968 20-1356): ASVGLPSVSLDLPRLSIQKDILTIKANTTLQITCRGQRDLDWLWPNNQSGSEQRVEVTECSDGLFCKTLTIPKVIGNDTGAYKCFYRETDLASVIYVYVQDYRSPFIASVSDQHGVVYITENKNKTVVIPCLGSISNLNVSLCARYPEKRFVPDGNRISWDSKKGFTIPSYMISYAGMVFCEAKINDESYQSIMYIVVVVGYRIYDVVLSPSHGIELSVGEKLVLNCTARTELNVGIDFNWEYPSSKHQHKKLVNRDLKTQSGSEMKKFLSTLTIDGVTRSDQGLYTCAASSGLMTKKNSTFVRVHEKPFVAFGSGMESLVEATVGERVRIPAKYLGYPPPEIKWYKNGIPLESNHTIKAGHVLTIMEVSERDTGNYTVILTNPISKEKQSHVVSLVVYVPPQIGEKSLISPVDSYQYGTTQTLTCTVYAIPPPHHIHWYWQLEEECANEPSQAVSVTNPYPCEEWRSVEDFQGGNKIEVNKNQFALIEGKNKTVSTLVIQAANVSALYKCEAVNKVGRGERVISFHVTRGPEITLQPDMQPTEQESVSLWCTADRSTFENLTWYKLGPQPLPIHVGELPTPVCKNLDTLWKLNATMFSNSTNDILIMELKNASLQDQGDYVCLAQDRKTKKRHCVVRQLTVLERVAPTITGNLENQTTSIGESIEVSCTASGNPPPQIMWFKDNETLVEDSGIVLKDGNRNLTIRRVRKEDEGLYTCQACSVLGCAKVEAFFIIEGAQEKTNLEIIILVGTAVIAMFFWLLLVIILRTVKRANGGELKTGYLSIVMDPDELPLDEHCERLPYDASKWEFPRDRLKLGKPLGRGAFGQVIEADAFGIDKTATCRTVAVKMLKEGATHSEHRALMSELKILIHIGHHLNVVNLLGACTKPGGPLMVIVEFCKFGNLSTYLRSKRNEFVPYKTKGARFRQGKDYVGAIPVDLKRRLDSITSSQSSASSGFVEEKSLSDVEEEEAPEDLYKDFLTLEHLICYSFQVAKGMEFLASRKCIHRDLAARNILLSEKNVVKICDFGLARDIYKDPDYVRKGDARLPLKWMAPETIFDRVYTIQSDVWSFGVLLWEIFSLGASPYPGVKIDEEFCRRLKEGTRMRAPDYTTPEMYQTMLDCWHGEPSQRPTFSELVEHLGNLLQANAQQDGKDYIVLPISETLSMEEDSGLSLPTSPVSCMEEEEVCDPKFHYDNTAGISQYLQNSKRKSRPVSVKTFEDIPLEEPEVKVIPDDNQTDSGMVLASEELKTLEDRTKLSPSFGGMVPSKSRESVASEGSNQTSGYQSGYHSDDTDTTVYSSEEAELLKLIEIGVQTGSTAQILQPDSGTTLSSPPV
Chain of RET^V804M (P07949 29-1114 V804M): as the sequence (P07949 29-1114) above, with V776M counted along it
Description for RET^V804M Cell: as §1

Turning to `CN(C)C1CCN(CCn2nc(-c3[nH]c4ncccc4c3Cl)c3c(N)ncnc32)CC1` [Example 77, 3-(3-Chloro-1H-pyrrolo[2,3-b]pyridin-2-yl)-1-(2-(4-(dimethylamino)piperidin-1-yl)ethyl)-1H-pyrazolo[3,4-d]pyrimidin-4-amine], the IC50 on KDR was > 30000 nM. In the case of `CC(C)CCn1nc(-c2[nH]c3ccccc3c2Cl)c2c(N)ncnc21` [3-(3-Chloro-1H-indol-2-yl)-1-isopentyl-1H-pyrazolo[3,4-d]pyrimidin-4-amine], the “desired activity in the assays described in the Examples section” value (shortened to “desired activity in the assays described”) on RET is given as “did not exhibit the desired activity”. Turning to `CC(C)(C)OC(=O)N[C@H]1CC[C@H](n2nc(-c3cc4cccnc4[nH]3)c3c(N)ncnc32)CC1` [Example 28, tert-Butyl (trans-4-(4-amino-3-(1H-pyrrolo[2,3-b]pyridin-2-yl)-1H-pyrazolo[3,4-d]pyrimidin-1-yl)cyclohexyl)carbamate], at KDR, the IC50 is > 30000 nM. Regarding `Nc1ncnc2c1c(-c1[nH]c3ncccc3c1Cl)nn2CC(=O)O` [2-(4-amino-3-(3-chloro-1H-pyrrolo[2,3-b]pyridin-2-yl)-1H-pyrazolo[3,4-d]pyrimidin-1-yl)acetic acid], the “desired activity in the assays described” value on RET is reported as “did not exhibit the desired activity”. Regarding `Cn1nc(-c2[nH]c3ncccc3c2Cl)c2c(N)ncnc21` [Example 65, 3-(3-Chloro-1H-pyrrolo[2,3-b]pyridin-2-yl)-1-methyl-pyrazolo[3,4-d]pyrimidin-4-amine], the “desired activity in the assays described” value on RET is “did not exhibit the desired activity”. For the same compound, the IC50 against RET is > 30000 nM; against RET^V804M, > 30000 nM; in experiment [1], 1010 nM. Consider `CC(C)(C)OC(=O)N[C@H]1CC[C@@H](n2nc(-c3cc4cccnc4[nH]3)c3c(N)ncnc32)CC1` [Example 27, tert-Butyl N-[cis-4-(4-amino-3-{1H-pyrrolo[2,3-b]pyridin-2-yl}-1H-pyrazolo[3,4-d]pyrimidin-1-yl)cyclohexyl]carbamate], for which, on KDR, the IC50 was > 30000 nM.

On to `Nc1ncnc2c1c(-c1[nH]c3ncccc3c1Cl)nn2C1CCCCC1` [Example 67, 3-(3-Chloro-1H-pyrrolo[2,3-b]pyridin-2-yl)-1-cyclohexyl-pyrazolo[3,4-d]pyrimidin-4-amine], for which the values for the IC50 (against RET; at RET^V804M; in experiment [1]) were > 30000 nM, > 30000 nM and 68.7 nM, respectively. Take `CS(=O)(=O)N1CCC(n2nc(-c3[nH]c4ccccc4c3Cl)c3c(N)ncnc32)CC1` [Example 4, 3-(3-Chloro-1H-indol-2-yl)-1-(1-methylsulfonyl-4-piperidyl)pyrazolo[3,4-d]pyrimidin-4-amine]: the IC50 against KDR was > 30000 nM. As to `Nc1ncnc2c1c(-c1[nH]c3ccccc3c1Cl)nn2CC1CCNC1` (centres unmarked) [3-(3-chloro-1H-indol-2-yl)-1-(pyrrolidin-3-ylmethyl)-1H-pyrazolo[3,4-d]pyrimidin-4-amine], the “desired activity in the assays described” value at RET was “did not exhibit the desired activity”. On to `CC(C)n1nc(-c2cc3ccccc3[nH]2)c2c(N)ncnc21` [Example 44, 3-(1H-Indol-2-yl)-1-isopropyl-pyrazolo[3,4-d]pyrimidin-4-amine], for which the IC50 in experiment [2] turned out to be 2770 nM; in experiment [3] it was 3630 nM; on RET it was 18.7 nM; against RET^V804M it was 1870 nM; in the experiment with RET^V804M Cell it was 1470 nM; in experiment [1] (BaF3 cells expressing KIF5B-RET, 48 hours, CellTiter-Glo), 83.6 nM. Moreover, half-maximal inhibition against KDR (IC50) required 4570 nM. For `CC(C)(C)n1nc(-c2cc3ncccc3[nH]2)c2c(N)ncnc21` [1-tert-butyl-3-(1H-pyrrolo[3,2-b]pyridin-2-yl)pyrazolo[3,4-d]pyrimidin-4-amine], the “desired activity in the assays described” value on RET was “did not exhibit the desired activity”.

With `Nc1ncnc2c1c(-c1cc3cccnc3[nH]1)nn2[C@H]1CC[C@H](NC(=O)C2CC2)CC1` [Example 36, N-(trans-4-(4-Amino-3-(1H-pyrrolo[2,3-b]pyridin-2-yl)-1H-pyrazolo[3,4-d]pyrimidin-1-yl)cyclohexyl)cyclopropanecarboxamide], the IC50 against KDR was > 30000 nM.
